# Experimental data reported in US8129371B2, “Thienopyrimidine and pyrazolopyrimidine compounds and their use as mTOR kinase and PI3 kinase inhibitors” (Wyeth LLC, priority 2007, dated 2012).
# Like-named read-outs stand apart in the source and are kept apart here.
# Experiments:
# [1] = system: breast line MDA468; experiment: In vitro cell culture growth assay (MTS), MDA468; assay type: cell-based; settings: Homo sapiens, 72 h, MDA468 cells, three days after drug treatment
# Procedure, shortened: (§1)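 Viable cell density is assessed three days after inhibitor addition via MTS conversion, normalised to vehicle-treated cells.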
# [2] = system: prostate line LNCap; experiment: In vitro cell culture growth assay (MTS), LNCap; assay type: cell-based; settings: Homo sapiens, LNCaP, 72 h, LNCap cells, three days after drug treatment
# Procedure, shortened: as §1
# [3] = target: T1, PI3K (Homo sapiens, UniProt P48736); experiment: Fluorescence polarization assay for PI3K; assay type: biochemical; settings: read-out: PI3 Kinase γ IC50
# T1 construct: PI3 Kinase γ IC50; other: PI3 Kinase γ; other: PI3 Kinase γ isoform, fluorescence polarization
# T1 sequence (P48736 whole entry, canonical isoform): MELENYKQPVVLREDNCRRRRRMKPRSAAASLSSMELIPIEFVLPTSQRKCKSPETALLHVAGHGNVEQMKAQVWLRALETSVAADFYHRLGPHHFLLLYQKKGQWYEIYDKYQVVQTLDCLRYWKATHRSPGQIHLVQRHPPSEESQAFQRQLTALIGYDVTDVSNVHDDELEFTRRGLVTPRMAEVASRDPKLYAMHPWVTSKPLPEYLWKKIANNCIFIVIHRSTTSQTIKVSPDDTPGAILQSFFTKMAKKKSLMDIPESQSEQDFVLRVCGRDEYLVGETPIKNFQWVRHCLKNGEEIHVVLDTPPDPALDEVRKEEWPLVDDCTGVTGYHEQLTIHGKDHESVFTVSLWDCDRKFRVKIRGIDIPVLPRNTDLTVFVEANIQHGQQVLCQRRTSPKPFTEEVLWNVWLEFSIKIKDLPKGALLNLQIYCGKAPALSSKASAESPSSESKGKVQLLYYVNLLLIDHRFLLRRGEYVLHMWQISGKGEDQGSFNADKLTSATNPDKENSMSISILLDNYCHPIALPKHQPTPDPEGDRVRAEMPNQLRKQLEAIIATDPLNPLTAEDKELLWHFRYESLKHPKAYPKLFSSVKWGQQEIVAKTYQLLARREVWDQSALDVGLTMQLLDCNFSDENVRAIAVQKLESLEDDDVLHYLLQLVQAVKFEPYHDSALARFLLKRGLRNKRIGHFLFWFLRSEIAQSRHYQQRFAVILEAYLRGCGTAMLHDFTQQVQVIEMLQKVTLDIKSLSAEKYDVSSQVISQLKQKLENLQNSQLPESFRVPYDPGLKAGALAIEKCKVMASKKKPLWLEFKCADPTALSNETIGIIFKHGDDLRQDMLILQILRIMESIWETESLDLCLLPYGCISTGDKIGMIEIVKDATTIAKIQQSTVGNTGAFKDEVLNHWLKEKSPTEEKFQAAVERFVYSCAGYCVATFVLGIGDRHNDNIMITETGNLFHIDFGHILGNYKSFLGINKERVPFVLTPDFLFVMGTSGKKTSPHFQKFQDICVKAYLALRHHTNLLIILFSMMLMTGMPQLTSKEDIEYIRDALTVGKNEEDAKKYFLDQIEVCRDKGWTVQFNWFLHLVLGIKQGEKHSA
# Procedure, shortened: (§2)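 Fluorescence-polarization competition readout: after 30–60 min of PIP2/ATP turnover in 1% DMSO, a stop mix with GST-GRP (70 nM) and red probe (10 nM) was added.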
# [4] = target: T2, PI3K (Homo sapiens, UniProt P42336); experiment: Fluorescence polarization assay for PI3K; assay type: biochemical; settings: read-out: PI3 Kinase α IC50
# T2 construct: PI3 Kinase α IC50; other: PI3 Kinase α; other: PI3 Kinase α isoform, fluorescence polarization
# T2 sequence (P42336 whole entry, canonical isoform): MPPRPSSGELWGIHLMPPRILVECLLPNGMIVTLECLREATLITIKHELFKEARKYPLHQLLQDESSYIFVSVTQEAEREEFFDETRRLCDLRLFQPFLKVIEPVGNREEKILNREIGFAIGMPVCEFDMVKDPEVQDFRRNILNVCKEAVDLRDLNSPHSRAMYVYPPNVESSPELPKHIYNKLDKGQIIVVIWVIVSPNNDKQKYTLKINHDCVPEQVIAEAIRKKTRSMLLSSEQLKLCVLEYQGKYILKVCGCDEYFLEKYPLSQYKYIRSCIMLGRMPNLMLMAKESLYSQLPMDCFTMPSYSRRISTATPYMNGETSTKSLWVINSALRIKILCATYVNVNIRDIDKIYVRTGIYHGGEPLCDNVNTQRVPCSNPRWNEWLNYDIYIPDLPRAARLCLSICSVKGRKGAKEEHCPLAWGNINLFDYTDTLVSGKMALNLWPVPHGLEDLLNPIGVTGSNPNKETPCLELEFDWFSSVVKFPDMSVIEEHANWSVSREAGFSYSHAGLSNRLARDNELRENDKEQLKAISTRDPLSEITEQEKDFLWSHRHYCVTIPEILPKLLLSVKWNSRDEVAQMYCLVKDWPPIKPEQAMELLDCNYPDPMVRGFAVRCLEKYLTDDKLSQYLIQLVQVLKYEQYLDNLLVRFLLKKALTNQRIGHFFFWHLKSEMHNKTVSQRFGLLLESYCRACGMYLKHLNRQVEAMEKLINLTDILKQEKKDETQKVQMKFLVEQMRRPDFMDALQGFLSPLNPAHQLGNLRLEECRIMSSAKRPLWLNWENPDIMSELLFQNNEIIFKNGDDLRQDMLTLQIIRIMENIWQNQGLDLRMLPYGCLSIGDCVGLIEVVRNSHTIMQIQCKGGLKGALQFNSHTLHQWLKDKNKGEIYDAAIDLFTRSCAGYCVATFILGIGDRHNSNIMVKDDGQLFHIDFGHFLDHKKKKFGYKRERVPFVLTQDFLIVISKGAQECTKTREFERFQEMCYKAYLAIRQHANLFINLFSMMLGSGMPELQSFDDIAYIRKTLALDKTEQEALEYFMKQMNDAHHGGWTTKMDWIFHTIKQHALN
# Procedure, shortened: as §2
# [5] = target: T3, Human mTOR (FLAG-TOR) (Homo sapiens, UniProt P42345); experiment: Human mTOR kinase assay with purified enzyme, DELFIA format; assay type: biochemical
# T3 construct: FLAG
# Procedure, shortened: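 DELFIA readout: Eu-anti-P(T389)-S6K antibody (40 ng/mL, 1 h) on captured His6-S6K from the stopped reaction. Kinase step used purified FLAG-tagged human mTOR with test compound in HEPES (pH 7.4)/MnCl2/DTT buffer, 2 h at room temperature (linear 1–6 h), terminated by EDTA/EGTA.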
# [6] = PI3 Kinase γ isoform, fluorescence polarization
# [7] = PI3 Kinase α isoform, fluorescence polarization
# [8] = purified human mTOR enzyme, DELFIA format
IC50 [2],"IC50 [3, 6]","IC50 [4, 7]","IC50 [5, 8]",IC50 ([3]; PI3 Kinase γ),IC50 ([4]; PI3 Kinase α),IC50 [5],Structure (SMILES),IC50 [1]
< 1 nM,4960 nM,404 nM,0.145 nM,,,,"COC1CCC(n2ncc3c(N4CC5CCC(C4)O5)nc(-c4ccc(NC(=O)Nc5ccc(C(=O)NN6CCCC6)cc5)cc4)nc32)CC1 (stereo not shown) [Example 307, 4-[({4-[1-(4-methoxycyclohexyl)-4-(8-oxa-3-azabicyclo[3.2.1]oct-3-yl)-1H-pyrazolo[3,4-d]pyrimidin-6-yl]phenyl}carbamoyl)amino]-N-pyrrolidin-1-ylbenzamide]",2 nM
2800 nM,,,,> 10000 nM,2450 nM,260 nM,"Oc1ccc(Nc2nc(N3CC4CCC(C3)O4)c3cnn(C4CCN(Cc5ccccc5)CC4)c3n2)cc1 [Example 30, 4-{[1-(1-benzylpiperidin-4-yl)-4-(8-oxa-3-azabicyclo[3.2.1]oct-3-yl)-1H-pyrazolo[3,4-d]pyrimidin-6-yl]amino}phenol]",7600 nM
< 0.8 nM,,,,391 nM,223 nM,0.14 nM,"O=C(Nc1ccncc1)Nc1ccc(-c2nc(N3CC4CCC(C3)O4)c3cnn(C4CCN(Cc5cccnc5)CC4)c3n2)cc1 [Example 19, 1-(4-{4-(8-oxa-3-azabicyclo[3.2.1]oct-3-yl)-1-[1-(pyridin-3-ylmethyl)piperidin-4-yl]-1H-pyrazolo[3,4-d]pyrimidin-6-yl}phenyl)-3-pyridin-4-ylurea]",< 0.8 nM
1020 nM,,,,> 10000 nM,2100 nM,26 nM,"COC(=O)Nc1ccc(-c2nc(N3CC4CCC(C3)O4)c3cnn(CCO)c3n2)cc1 [Example 192, methyl {4-[1-(2-hydroxyethyl)-4-(8-oxa-3-azabicyclo[3.2.1]oct-3-yl)-1H-pyrazolo[3,4-d]pyrimidin-6-yl]phenyl}carbamate]",5000 nM
< 1 nM,,,,952 nM,34 nM,0.086 nM,"O=C(Nc1ccc(CO)cc1)Nc1ccc(-c2nc(N3CC4CCC(C3)O4)c3cnn(CCF)c3n2)cc1 [Example 250, 1-{4-[1-(2-fluoroethyl)-4-(8-oxa-3-azabicyclo[3.2.1]oct-3-yl)-1H-pyrazolo[3,4-d]pyrimidin-6-yl]phenyl}-3-[4-(hydroxymethyl)phenyl]urea]",4 nM
< 1 nM,845 nM,164 nM,0.145 nM,,,,"COC1CCC(n2ncc3c(N4CC5CCC(C4)O5)nc(-c4ccc(NC(=O)Nc5ccncc5)cc4)nc32)CC1 (stereo not shown) [Example 303, 1-{4-[1-(4-methoxycyclohexyl)-4-(8-oxa-3-azabicyclo[3.2.1]oct-3-yl)-1H-pyrazolo[3,4-d]pyrimidin-6-yl]phenyl}-3-pyridin-4-ylurea]",1 nM
< 1 nM,1520 nM,182 nM,0.25 nM,,,,"COC1CCC(n2ncc3c(N4CC5CCC(C4)O5)nc(-c4ccc(NC(=O)Nc5ccc(N6CCNCC6)cc5)cc4)nc32)CC1 (stereo not shown) [Example 305, 1-{4-[1-(4-methoxycyclohexyl)-4-(8-oxa-3-azabicyclo[3.2.1]oct-3-yl)-1H-pyrazolo[3,4-d]pyrimidin-6-yl]phenyl}-3-(4-piperazin-1-ylphenyl)urea]",1 nM
1800 nM,,,,> 10000 nM,968 nM,14 nM,"CCn1ncc2c(N3CC4CCC(C3)O4)nc(-c3ccc(NC(=O)NCCCNC)cc3)nc21 [Example 49, 1-{4-[1-ethyl-4-(8-oxa-3-azabicyclo[3.2.1]oct-3-yl)-1H-pyrazolo[3,4-d]pyrimidin-6-yl]phenyl}-3-[3-(methylamino)propyl]urea]",3000 nM
1050 nM,> 10000 nM,2460 nM,9 nM,,,,"CCn1nc(C(O)CO)c2c(N3CC4CCC(C3)O4)nc(-c3ccc(NC(=O)NC)cc3)nc21 (stereo not shown) [Example 351, 1-{4-[3-(1,2-dihydroxyethyl)-1-ethyl-4-(8-oxa-3-azabicyclo[3.2.1]oct-3-yl)-1H-pyrazolo[3,4-d]pyrimidin-6-yl]phenyl}-3-methylurea]",1600 nM
< 1 nM,,,,4790 nM,444 nM,0.235 nM,"N#CCCn1ncc2c(N3CC4CCC(C3)O4)nc(-c3ccc(NC(=O)Nc4ccc(N5CCOCC5)cc4)cc3)nc21 [Example 221, 1-{4-[1-(2-cyanoethyl)-4-(8-oxa-3-azabicyclo[3.2.1]oct-3-yl)-1H-pyrazolo[3,4-d]pyrimidin-6-yl]phenyl}-3-(4-morpholin-4-ylphenyl)urea]",3 nM
0.8 nM,,,,782 nM,162 nM,0.18 nM,"Cn1ncc2c(N3CC4CCC(C3)O4)nc(-c3ccc(NC(=O)Nc4ccncc4)cc3)nc21 [Example 57, 1-{4-[1-methyl-4-(8-oxa-3-azabicyclo[3.2.1]oct-3-yl)-1H-pyrazolo[3,4-d]pyrimidin-6-yl]phenyl}-3-pyridin-4-ylurea]",9 nM
0.9 nM,,,,672 nM,460 nM,0.23 nM,"CC(C)OC(=O)N1CCC(n2ncc3c(N4CC5CCC(C4)O5)nc(-c4ccc(NC(=O)Nc5ccncc5)cc4)nc32)CC1 [Example 73, isopropyl 4-[4-(8-oxa-3-azabicyclo[3.2.1]oct-3-yl)-6-{4-[(pyridin-4-ylcarbamoyl)amino]phenyl}-1H-pyrazolo[3,4-d]pyrimidin-1-yl]piperidine-1-carboxylate]",9 nM
< 1 nM,,,,10400 nM,147 nM,0.215 nM,"O=C(Nc1ccc(OCCO)cc1)Nc1ccc(-c2nc(N3CC4CCC(C3)O4)c3cnn(CC(F)(F)F)c3n2)cc1 [Example 263, 1-[4-(2-hydroxyethoxy)phenyl]-3-{4-[4-(8-oxa-3-azabicyclo[3.2.1]oct-3-yl)-1-(2,2,2-trifluoroethyl)-1H-pyrazolo[3,4-d]pyrimidin-6-yl]phenyl}urea]",5 nM
28 nM,4480 nM,273 nM,2.35 nM,,,,"COCC(COC)n1ncc2c(N3CC4CCC(C3)O4)nc(-c3ccc(NC(=O)Nc4ccc(N5CCNCC5)cc4)cc3)nc21 [Example 335, 1-(4-{1-[2-methoxy-1-(methoxymethyl)ethyl]-4-(8-oxa-3-azabicyclo[3.2.1]oct-3-yl)-1H-pyrazolo[3,4-d]pyrimidin-6-yl}phenyl)-3-(4-piperazin-1-ylphenyl)urea]",210 nM
0.9 nM,,,,4280 nM,215 nM,0.36 nM,"CCOC(=O)N1CCC(n2ncc3c(N4CC5CCC(C4)O5)nc(-c4ccc(NC(=O)Nc5ccccc5)cc4)nc32)CC1 [Example 33, ethyl 4-[4-(8-oxa-3-azabicyclo[3.2.1]oct-3-yl)-6-{4-[(phenylcarbamoyl)amino]phenyl}-1H-pyrazolo[3,4-d]pyrimidin-1-yl]piperidine-1-carboxylate]",18 nM
1200 nM,> 10000 nM,2390 nM,66.5 nM,,,,"CCn1nc(CN2CCCC2)c2c(N3CC4CCC(C3)O4)nc(-c3ccc(NC(=O)NC)cc3)nc21 [Example 354, 1-{4-[1-ethyl-4-(8-oxa-3-azabicyclo[3.2.1]oct-3-yl)-3-(pyrrolidin-1-ylmethyl)-1H-pyrazolo[3,4-d]pyrimidin-6-yl]phenyl}-3-methylurea]",2900 nM
17 nM,,,,> 10000 nM,602 nM,1.25 nM,"O=C(Nc1ccc(-c2nc(N3C[C@@H]4C[C@H]3CO4)c3cnn(CC(F)(F)F)c3n2)cc1)Nc1cccnc1 [Example 293, 1-(4-{4-[(1S,4S)-2-oxa-5-azabicyclo[2.2.1]hept-5-yl]-1-(2,2,2-trifluoroethyl)-1H-pyrazolo[3,4-d]pyrimidin-6-yl}phenyl)-3-pyridin-3-ylurea]",50 nM
2 nM,> 10000 nM,2970 nM,0.41 nM,,,,"O=C(Nc1ccc(-c2nc(N3CC4CCC(C3)O4)c3cnn([C@H]4CC[C@@H](O)CC4)c3n2)cc1)NC1CC1 (relative stereo) [Example 402, 1-cyclopropyl-3-{4-[1-(cis-4-hydroxycyclohexyl)-4-(8-oxa-3-azabicyclo[3.2.1]oct-3-yl)-1H-pyrazolo[3,4-d]pyrimidin-6-yl]phenyl}urea]",40 nM
3500 nM,,,,> 10000 nM,2950 nM,110 nM,"CCn1ncc2c(N3CC4CCC(C3)O4)nc(-c3ccc(NC(=O)NCCC(=O)N4CCN(C)CC4)cc3)nc21 [Example 277, 1-{4-[1-ethyl-4-(8-oxa-3-azabicyclo[3.2.1]oct-3-yl)-1H-pyrazolo[3,4-d]pyrimidin-6-yl]phenyl}-3-[3-(4-methylpiperazin-1-yl)-3-oxopropyl]urea]",8000 nM

Structure (SMILES),IC50 [2],"IC50 [3, 6]","IC50 [4, 7]","IC50 [5, 8]",IC50 ([3]; PI3 Kinase γ),IC50 ([4]; PI3 Kinase α),IC50 [5],IC50 [1]
"Oc1cccc(-c2nc(N3C4CCC3COC4)c3cnn(-c4ccccc4)c3n2)c1 [Example 378, 3-[4-(3-oxa-8-azabicyclo[3.2.1]oct-8-yl)-1-phenyl-1H-pyrazolo[3,4-d]pyrimidin-6-yl]phenol]",820 nM,1960 nM,407 nM,11.5 nM,,,,5800 nM
